One assay deals with T1, PRMT5 (Homo sapiens, UniProt O14744).
T1 construct: we performed a global quantitative proteomic analysis of MCF7 cells using mass spectrometry; endogenous in cells; host or cells: MCF7
As to the kind of experiment: Global proteomics of MCF7 cells, PRMT5 level. The assay is classed as cell-based. The following applies: 25 nM, 4 h, versus DMSO. Here is the method:
(§1) Sample preparation for global proteomics analysis. Sample preparation is similar to the previous report (Ma et al. “Strategy Based on Deglycosylation, Multiprotease, and Hydrophilic Interaction Chromatography for Large-Scale Profiling of Protein Methylation” Anal. Chem. 2017, 89 (23), 12909-12917). Briefly, treated MCF7 cells were harvested by washing with PBS buffer (Gibco, pH 7.4) and lysed in RIPA buffer supplemented with protease inhibitors for 20 min, then protein concentration was determined using a BCA Protein Assay Kit (Thermo Pierce, Rockford, IL) per manufacturer instructions. […] The concentrations of the peptide mixture were measured by peptide assay (Thermo Fisher Scientific). […]
(§2) LC-MS/MS data acquisition. Samples were analyzed on an Orbitrap Fusion Lumos Tribrid mass spectrometer (Thermo Fisher Scientific) coupled to a Dionex UltiMate 3000 UPLC system. […]
(§3) Data analysis. Protein identification and quantification by MaxQuant (version 1.5.3.8) based database searching, using the integrated Andromeda search engine with FDR <1% at peptide and protein levels. […] For label-free protein quantification (LFQ), the MaxQuant LFQ algorithm was used to quantitate the MS signals, and the proteins' intensities were represented in LFQintesnit (Schaab et al. “Analysis of High Accuracy, Quantitative Proteomics Data in the MaxQB Database” Mol. Cell. Proteomics 2012, 11 (3), M111.014068). […]

In the next assay the target is T2, CARM1 (Homo sapiens, UniProt Q86X55).
T2 sequence (Q86X55 1-608): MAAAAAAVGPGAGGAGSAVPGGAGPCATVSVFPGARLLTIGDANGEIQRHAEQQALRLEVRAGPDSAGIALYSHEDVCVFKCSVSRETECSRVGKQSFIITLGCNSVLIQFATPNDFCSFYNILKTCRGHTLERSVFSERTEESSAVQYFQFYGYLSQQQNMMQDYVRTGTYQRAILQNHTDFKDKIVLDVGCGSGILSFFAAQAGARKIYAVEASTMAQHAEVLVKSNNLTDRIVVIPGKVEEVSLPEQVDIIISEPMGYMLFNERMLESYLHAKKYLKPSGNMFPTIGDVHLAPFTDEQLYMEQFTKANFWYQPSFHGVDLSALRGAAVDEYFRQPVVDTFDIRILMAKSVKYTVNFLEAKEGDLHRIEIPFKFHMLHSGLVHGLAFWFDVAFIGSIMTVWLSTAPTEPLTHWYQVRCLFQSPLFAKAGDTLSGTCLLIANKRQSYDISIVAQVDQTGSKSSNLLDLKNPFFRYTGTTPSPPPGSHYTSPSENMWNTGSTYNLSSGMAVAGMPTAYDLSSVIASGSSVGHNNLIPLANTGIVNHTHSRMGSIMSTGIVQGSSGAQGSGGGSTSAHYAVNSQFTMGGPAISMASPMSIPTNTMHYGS
Put plainly: Global proteomics of MCF7 cells, CARM1 level. More on the design: we performed a global quantitative proteomic analysis of MCF7 cells using mass spectrometry; endogenous in cells; host or cells: MCF7. The assay is classed as cell-based. The following applies: 25 nM, 4 h, versus DMSO. Here is the method:
as §1, §2, §3

T1 sequence (O14744 whole entry): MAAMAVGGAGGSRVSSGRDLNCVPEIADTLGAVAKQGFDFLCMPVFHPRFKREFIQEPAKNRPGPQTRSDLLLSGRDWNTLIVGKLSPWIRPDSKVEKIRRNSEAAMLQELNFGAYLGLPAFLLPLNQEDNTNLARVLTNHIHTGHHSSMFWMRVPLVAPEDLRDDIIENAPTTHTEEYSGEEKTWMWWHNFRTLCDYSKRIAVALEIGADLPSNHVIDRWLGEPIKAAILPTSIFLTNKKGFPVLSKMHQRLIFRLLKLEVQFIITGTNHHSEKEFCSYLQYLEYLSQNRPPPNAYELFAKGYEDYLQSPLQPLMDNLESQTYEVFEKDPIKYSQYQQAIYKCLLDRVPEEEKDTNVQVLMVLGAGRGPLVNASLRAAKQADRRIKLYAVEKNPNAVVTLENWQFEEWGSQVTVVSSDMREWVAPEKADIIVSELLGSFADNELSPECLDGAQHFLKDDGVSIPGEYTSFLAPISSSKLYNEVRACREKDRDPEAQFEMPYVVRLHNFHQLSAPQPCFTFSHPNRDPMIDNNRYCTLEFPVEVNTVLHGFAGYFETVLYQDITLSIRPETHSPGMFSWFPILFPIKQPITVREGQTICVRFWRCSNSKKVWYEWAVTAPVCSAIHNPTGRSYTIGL

For `CNCCN1CCC(c2cc(CN(C)C(=O)c3cccc(Oc4ccc(OCC(=O)N5CCC(CN6CCC(CN7CCN(CC(=O)N[C@H](C(=O)N8C[C@H](O)C[C@H]8C(=O)N[C@@H](C)c8ccc(-c9scnc9C)cc8)C(C)(C)C)CC7)CC6)CC5)cc4)c3)ccn2)CC1` [Compound 3b, (2S,4R)-1-((S)-3,3-dimethyl-2-(2-(4-((1-((1-(2-(4-(3-(methyl((2-(1-(2-(methylamino)ethyl)piperidin-4-yl)pyridin-4-yl)methyl)carbamoyl)phenoxy)phenoxy)acetyl)piperidin-4-yl)methyl)piperidin-4-yl)methyl)piperazin-1-yl)acetamido)butanoyl)-4-hydroxy-N—((S)-1-(4-(4-methylthiazol-5-yl)phenyl)ethyl)pyrrolidine-2-carboxamide], the “PRMT5 protein level in proteomics” value on PRMT5 is given as “not significantly changed”. The “CARM1 protein level in proteomics” value at CARM1 was “significant downregulation”.

(Values after US20250222120A1, “SYNTHESIS OF NOVEL SMALL MOLECULE CARM1 DEGRADERS, COMPOUNDS FORMED THEREBY, AND PHARMACEUTICAL COMPOSITIONS CONTAINING THEM” (Wisconsin Alumni Research Foundation, priority 2024, published 2025).)
